Data: US7829568B2, “Substituted 5,6,7,8-tetrahydroimidazo[1,2-a]pyridin-2-ylamine compounds and their use for producing drugs” (Gruenenthal GmbH, priority 2005, dated 2010)

Test system: batrachotoxin (BTX) binding site of the sodium channel
Assay: Affinity to the batrachotoxin (BTX) binding site of the sodium channel
Parameters: species or system rat
Details: [3H]-batrachotoxinin A20 α-benzoate 10 nM; synaptosomes from rat cerebral cortex; test concentration not given

SMILES: CCCCN(C(=O)c1cccc(Cl)c1)c1nc2n(c1C(=O)NCCN1CCCC1)CCCC2 [Example 58, 2-[butyl-(3-chloro-benzoyl)-amino]-5,6,7,8-tetrahydro-imidazo[1,2-a]pyridine-3-carboxylic acid (2-pyrrolidin-1-yl-ethyl)-amide]
- BTX inhibition (rat) (% inhibition): 50%
